The structures appear in SMILES notation.

For the experiment, the target named is [35S]-TBPS binding, rat brain cortical membranes. The experiment can be described thus: Steroid inhibition of [35S]-TBPS binding. To be noted: 3 nM [35S]-TBPS, in the presence of 5 mM GABA. In outline:
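In the presence of […], compounds (DMSO 0.5% final) competed with 3 nM [35S]-TBPS for Sprague-Dawley rat cortical membranes, pH 7.4 phosphate buffer, 90 min, room temperature. Filtration and scintillation counting; specific binding defined by […]; IC50 and maximal inhibition fitted per experiment, averaged as mean ± SEM.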
As for `CCC[C@@]1(O)CC[C@H]2[C@H](CC[C@@H]3[C@@H]2CC[C@]2(C)[C@@H]([C@@H](C)Cn4nnnc4C)CC[C@@H]32)C1` [Example 324, (3R,5R,8R,9R,10S,13S,14S,17R)-13-methyl-17-(1-(5-methyl-1H-tetrazol-1-yl)propan-2-yl)-3-propylhexadecahydro-1H-cyclopenta[a]phenanthren-3-ol], the half-inhibitory concentration (IC50) is less than 0.1 µM.

As to `COC[C@@]1(O)CC[C@@]2(C)[C@H](CC[C@@H]3[C@@H]2[C@@H](O)C[C@]2(C)[C@@H]([C@@H](C)Cn4cc(C#N)cn4)CC[C@@H]32)C1` [Example 327, 1-((R)-2-((3R,5R,8S,9S,10S,11S,13S,14S,17R)-3,11-dihydroxy-3-(methoxymethyl)-10,13-dimethylhexadecahydro-1H-cyclopenta[a]phenanthren-17-yl)propyl)-1H-pyrazole-4-carbonitrile], the IC50 is 0.1 to 1 µM. The result for `COC[C@@]1(O)CC[C@@]2(C)[C@H](CC[C@@H]3[C@@H]2[C@@H](O)C[C@]2(C)[C@@H]([C@H](C)Cn4cc(C#N)cn4)CC[C@@H]32)C1` [Example 328, 1-((S)-2-((3R,5R,8S,9S,10S,11S,13S,14S,17R)-3,11-dihydroxy-3-(methoxymethyl)-10,13-dimethylhexadecahydro-1H-cyclopenta[a]phenanthren-17-yl)propyl)-1H-pyrazole-4-carbonitrile] reads 0.1 to 1 µM; that for `CCC[C@@]1(O)CC[C@H]2[C@@H](CC[C@@H]3[C@@H]2CC[C@]2(C)[C@@H]([C@@H](C)Cn4nnc(C)n4)CC[C@@H]32)C1` [Example 329, (3R,5S,8R,9R,10S,13S,14S,17R)-13-methyl-17-((R)-1-(5-methyl-2H-tetrazol-2-yl)propan-2-yl)-3-propylhexadecahydro-1H-cyclopenta[a]phenanthren-3-ol], not below 10 µM; that for `CCC[C@@]1(O)CC[C@H]2[C@@H](CC[C@@H]3[C@@H]2CC[C@]2(C)[C@@H]([C@H](C)Cn4nnc(C)n4)CC[C@@H]32)C1` [Example 330, (3R,5S,8R,9R,10S,13S,14S,17R)-13-methyl-17-((S)-1-(5-methyl-2H-tetrazol-2-yl)propan-2-yl)-3-propylhexadecahydro-1H-cyclopenta[a]phenanthren-3-ol], not below 10 µM. For `CCC[C@@]1(O)CC[C@H]2[C@@H](CC[C@@H]3[C@@H]2CC[C@]2(C)[C@@H]([C@H](C)Cn4nnnc4C)CC[C@@H]32)C1` [Example 331, (3R,5S,8R,9R,10S,13S,14S,17R)-13-methyl-17-((S)-1-(5-methyl-1H-tetrazol-1-yl)propan-2-yl)-3-propylhexadecahydro-1H-cyclopenta[a]phenanthren-3-ol], the IC50 was not below 10 µM. The value for `CC[C@@]1(O)CC[C@H]2[C@@H](CC[C@@H]3[C@@H]2CC[C@]2(C)[C@@H]([C@@H](C)Cn4nnc(C)n4)CC[C@@H]32)C1` [Example 333, (3R,5S,8R,9R,10S,13S,14S,17R)-3-ethyl-13-methyl-17-((R)-1-(5-methyl-2H-tetrazol-2-yl)propan-2-yl)hexadecahydro-1H-cyclopenta[a]phenanthren-3-ol] was 0.1 to 1 µM; that for `CC[C@@]1(O)CC[C@H]2[C@@H](CC[C@@H]3[C@@H]2CC[C@]2(C)[C@@H]([C@H](C)Cn4nnc(C)n4)CC[C@@H]32)C1` [Example 334, (3R,5S,8R,9R,10S,13S,14S,17R)-3-ethyl-13-methyl-17-((S)-1-(5-methyl-2H-tetrazol-2-yl)propan-2-yl)hexadecahydro-1H-cyclopenta[a]phenanthren-3-ol] was not below 10 µM; that for `CC[C@@]1(O)CC[C@H]2[C@@H](CC[C@@H]3[C@@H]2CC[C@]2(C)[C@@H]([C@@H](C)Cn4nnnc4C)CC[C@@H]32)C1` [Example 335, (3R,5S,8R,9R,10S,13S,14S,17R)-3-ethyl-13-methyl-17-((R)-1-(5-methyl-1H-tetrazol-1-yl)propan-2-yl)hexadecahydro-1H-cyclopenta[a]phenanthren-3-ol] was 0.1 to 1 µM.

Regarding `CC[C@@]1(O)CC[C@H]2[C@@H](CC[C@@H]3[C@@H]2CC[C@]2(C)[C@@H]([C@H](C)Cn4nnnc4C)CC[C@@H]32)C1` [Example 336, (3R,5S,8R,9R,10S,13S,14S,17R)-3-ethyl-13-methyl-17-((S)-1-(5-methyl-1H-tetrazol-1-yl)propan-2-yl)hexadecahydro-1H-cyclopenta[a]phenanthren-3-ol], the IC50 was not below 10 µM. For the molecule `CCC[C@@]1(O)CC[C@@]2(C)[C@H](CC[C@@H]3[C@@H]2[C@H](O)C[C@]2(C)[C@@H]([C@@H](C)Cn4cc(C#N)cn4)CC[C@@H]32)C1` [Example 337, 1-((R)-2-((3R,5R,8S,9S,10S,11R,13S,14S,17R)-3,11-dihydroxy-10,13-dimethyl-3-propylhexadecahydro-1H-cyclopenta[a]phenanthren-17-yl)propyl)-1H-pyrazole-4-carbonitrile], the IC50 is 0.1 to 1 µM. The value for `CCC[C@@]1(O)CC[C@@]2(C)[C@H](CC[C@@H]3[C@@H]2[C@H](O)C[C@]2(C)[C@@H]([C@H](C)Cn4cc(C#N)cn4)CC[C@@H]32)C1` [Example 338, 1-((S)-2-((3R,5R,8S,9S,10S,11R,13S,14S,17R)-3,11-dihydroxy-10,13-dimethyl-3-propylhexadecahydro-1H-cyclopenta[a]phenanthren-17-yl)propyl)-1H-pyrazole-4-carbonitrile] was 0.1 to 1 µM; that for `C[C@H](Cn1cc(C#N)cn1)[C@H]1CC[C@H]2[C@@H]3CC[C@@H]4C[C@@](O)(C5CC5)CC[C@@H]4[C@H]3CC[C@]12C` [Example 342, 1-((S)-2-((3R,5R,8R,9R,10S,13S,14S,17R)-3-cyclopropyl-3-hydroxy-13-methylhexadecahydro-1H-cyclopenta[a]phenanthren-17-yl)propyl)-1H-pyrazole-4-carbonitrile] was 0.1 to 1 µM.

Regarding `CC(C)[C@@]1(O)CC[C@H]2[C@H](CC[C@@H]3[C@@H]2CC[C@]2(C)[C@@H]([C@@H](C)Cn4cc(C#N)cn4)CC[C@@H]32)C1` [Example 343, 1-((R)-2-((3R,5R,8R,9R,10S,13S,14S,17R)-3-hydroxy-3-isopropyl-13-methylhexadecahydro-1H-cyclopenta[a]phenanthren-17-yl)propyl)-1H-pyrazole-4-carbonitrile], the concentration for half-maximal inhibition (IC50) was in the range of 0.1 to 1 µM.

Turning to `CC(C)[C@@]1(O)CC[C@H]2[C@H](CC[C@@H]3[C@@H]2CC[C@]2(C)[C@@H]([C@H](C)Cn4cc(C#N)cn4)CC[C@@H]32)C1` [Example 344, 1-((S)-2-((3R,5R,8R,9R,10S,13S,14S,17R)-3-hydroxy-3-isopropyl-13-methylhexadecahydro-1H-cyclopenta[a]phenanthren-17-yl)propyl)-1H-pyrazole-4-carbonitrile], the IC50 was not below 10 µM. The result for `C[C@@H](Cn1cc(C#N)cn1)[C@@]1(O)CC[C@H]2[C@@H]3CC[C@@H]4C[C@](C)(O)CC[C@@H]4[C@H]3CC[C@@]21C` [Example 345, 1-((S)-2-((3R,5R,8R,9R,10S,13S,14S,17S)-3,17-dihydroxy-3,13-dimethylhexadecahydro-1H-cyclopenta[a]phenanthren-17-yl)propyl)-1H-pyrazole-4-carbonitrile] reads 1 to 10 µM. For the molecule `C[C@H](Cn1cc(C#N)cn1)[C@@]1(O)CC[C@H]2[C@@H]3CC[C@@H]4C[C@](C)(O)CC[C@@H]4[C@H]3CC[C@@]21C` [Example 346, 1-((R)-2-((3R,5R,8R,9R,10S,13S,14S,17S)-3,17-dihydroxy-3,13-dimethylhexadecahydro-1H-cyclopenta[a]phenanthren-17-yl)propyl)-1H-pyrazole-4-carbonitrile], the IC50 was in the range of 1 to 10 µM. The value for `CCC[C@@]1(O)CC[C@H]2[C@H](CC[C@@H]3[C@@H]2CC[C@@]2(C)[C@H]3CC[C@]2(O)[C@@H](C)Cn2cc(C#N)cn2)C1` [Example 347, 1-((S)-2-((3R,5R,8R,9R,10S,13S,14S,17S)-3,17-dihydroxy-13-methyl-3-propylhexadecahydro-1H-cyclopenta[a]phenanthren-17-yl)propyl)-1H-pyrazole-4-carbonitrile] was 1 to 10 µM.

Consider `CCC[C@@]1(O)CC[C@H]2[C@H](CC[C@@H]3[C@@H]2CC[C@@]2(C)[C@H]3CC[C@]2(O)[C@H](C)Cn2cc(C#N)cn2)C1` [Example 348, 1-((R)-2-((3R,5R,8R,9R,10S,13S,14S,17S)-3,17-dihydroxy-13-methyl-3-propylhexadecahydro-1H-cyclopenta[a]phenanthren-17-yl)propyl)-1H-pyrazole-4-carbonitrile], for which the IC50 is 1 to 10 µM.

For `CCC[C@@]1(O)CC[C@H]2[C@@H](CC[C@@H]3[C@@H]2CC[C@]2(C)[C@@H]([C@@H](C)Cn4cc(C#N)cn4)CC[C@@H]32)C1` [Example 349, 1-((R)-2-((3R,5S,8R,9R,10S,13S,14S,17R)-3-hydroxy-13-methyl-3-propylhexadecahydro-1H-cyclopenta[a]phenanthren-17-yl)propyl)-1H-pyrazole-4-carbonitrile], the IC50 is not below 10 µM. The result for `CCC[C@@]1(O)CC[C@H]2[C@@H](CC[C@@H]3[C@@H]2CC[C@]2(C)[C@@H]([C@H](C)Cn4cc(C#N)cn4)CC[C@@H]32)C1` [Example 350, 1-((S)-2-((3R,5S,8R,9R,10S,13S,14S,17R)-3-hydroxy-13-methyl-3-propylhexadecahydro-1H-cyclopenta[a]phenanthren-17-yl)propyl)-1H-pyrazole-4-carbonitrile] reads not below 10 µM.

As a reminder, the IC50 is the concentration at which inhibition is half-maximal.

These data come from patent US20230322846A9, “NEUROACTIVE STEROIDS AND THEIR METHODS OF USE” (SAGE THERAPEUTICS, INC., priority 2018, published 2023).
